# PMC6501587 (The Journal of neuroscience : the official journal of the …, 2009)
# Where a chain is given by its changes, count along the chain named. Read-outs that look alike come from different tables or passages of the source.
# What was measured:
# P2X2aR [1] = target: T1, P2X2aR (Rattus norvegicus, UniProt P49653); format: cell-based; settings: for effect on the ATP-gated current: 10 μM metal pre-applied 1 min and co-applied with 30 μM ATP; for washout period sufficient to restore normal response: after 10 μM metal
# T1 sequence (P49653 1-472): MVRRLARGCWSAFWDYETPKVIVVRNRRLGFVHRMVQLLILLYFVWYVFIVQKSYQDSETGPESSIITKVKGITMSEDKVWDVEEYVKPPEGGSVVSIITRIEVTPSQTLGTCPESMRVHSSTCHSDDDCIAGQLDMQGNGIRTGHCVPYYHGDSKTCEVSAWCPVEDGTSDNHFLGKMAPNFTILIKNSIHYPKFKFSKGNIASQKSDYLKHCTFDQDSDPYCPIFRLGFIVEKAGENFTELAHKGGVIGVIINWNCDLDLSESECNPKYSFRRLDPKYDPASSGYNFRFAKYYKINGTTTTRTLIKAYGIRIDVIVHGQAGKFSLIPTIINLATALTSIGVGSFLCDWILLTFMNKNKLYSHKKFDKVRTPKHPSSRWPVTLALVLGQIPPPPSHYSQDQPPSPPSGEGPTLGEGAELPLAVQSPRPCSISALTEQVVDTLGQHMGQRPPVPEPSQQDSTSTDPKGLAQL
# P2X4R = target: T2, P2X4R (Rattus norvegicus, UniProt P51577); format: cell-based; settings: oocytes; for effect on ATP-induced currents: 10 μM metal pre-applied 1 min and co-applied with 10 μM ATP
# T2 sequence (P51577 1-388): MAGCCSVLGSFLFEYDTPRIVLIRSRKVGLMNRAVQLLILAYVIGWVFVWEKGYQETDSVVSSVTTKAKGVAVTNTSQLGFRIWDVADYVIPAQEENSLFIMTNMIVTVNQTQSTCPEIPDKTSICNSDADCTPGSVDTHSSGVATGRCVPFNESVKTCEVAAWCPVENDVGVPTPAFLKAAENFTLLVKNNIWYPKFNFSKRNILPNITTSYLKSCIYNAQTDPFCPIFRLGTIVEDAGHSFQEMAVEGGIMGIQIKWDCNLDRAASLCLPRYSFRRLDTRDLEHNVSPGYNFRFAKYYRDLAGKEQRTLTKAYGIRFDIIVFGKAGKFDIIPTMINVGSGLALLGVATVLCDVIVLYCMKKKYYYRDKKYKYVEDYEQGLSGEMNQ
# P2X2bR [2] = target: T3, P2X2bR (Rattus norvegicus, UniProt P49653, DEL370-438); format: cell-based; settings: oocytes
# T3 sequence (P49653 with tags, fused parts or gaps DEL370-438): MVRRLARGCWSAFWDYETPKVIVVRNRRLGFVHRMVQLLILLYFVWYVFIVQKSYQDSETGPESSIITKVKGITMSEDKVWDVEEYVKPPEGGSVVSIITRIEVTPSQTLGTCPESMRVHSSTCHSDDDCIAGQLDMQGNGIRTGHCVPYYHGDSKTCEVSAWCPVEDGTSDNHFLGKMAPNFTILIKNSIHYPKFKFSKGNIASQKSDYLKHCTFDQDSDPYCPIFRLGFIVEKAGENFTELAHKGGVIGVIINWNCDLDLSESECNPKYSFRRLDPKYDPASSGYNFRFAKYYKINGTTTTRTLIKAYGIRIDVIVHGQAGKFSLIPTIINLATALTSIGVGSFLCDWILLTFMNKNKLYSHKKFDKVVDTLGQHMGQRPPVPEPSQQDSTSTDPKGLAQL
# P2X2aR [3] = target: T1, P2X2aR; test: ATP-evoked currents, whole-cell patch clamp, HEK293 cells expressing P2X2aR; format: cell-based
# P2X2bR [4] = target: T3, P2X2bR; format: cell-based; settings: HEK293 cells
# P2X2R = settings: after application; ref Mason et al. (2004); cited from earlier work
# P2X2a-C430A = target: T4, P2X2a-C430A (Rattus norvegicus, UniProt P49653, C430A); format: cell-based; settings: oocytes; for potentiation compared to wild type P2X2aR: zinc or copper
# T4 sequence (P49653 1-472 C430A): T1 sequence (P49653 1-472) with C430A
# P2X2a-C430S [5] = target: T5, P2X2a-C430S (Rattus norvegicus, UniProt P49653, C430S); format: cell-based; settings: oocytes; for potentiation compared to wild type P2X2aR: copper or zinc
# T5 sequence (P49653 1-472 C430S): T1 sequence (P49653 1-472) with C430S
# P2X4/2a chimera = format: cell-based, rat; settings: oocytes; for effect on deactivation constant: copper or zinc
# P2X4/2b chimera = format: cell-based, rat; settings: oocytes
# P2X2a-C430S [6] = target: T5, P2X2a-C430S; format: cell-based; settings: HEK293 cells
# [7] = saturating concentration of ATP
smiles,measurement,setting,value
"CSS(C)(=O)=O [MMTS, Methylmethane-thiosulfonate]",effect on H2O2 potentiation,P2X2aR [1],abolished
same,current increase by agent alone (transient and reversible),"P2X2aR [1]; MMTS alone, oocytes, data not shown",20%
same,effect on mercury-induced potentiation,"P2X2aR [1]; MMTS treatment, oocytes",abolished
"O[C@@H](CS)[C@@H](O)CS (racemic) [DTT, dithiothreitrol]",effect on ATP-evoked currents,"P2X2aR [1]; 1 mM DTT alone, oocytes",did not modify the ATP-evoked currents
same,effect of co-application with H2O2,"P2X2aR [1]; DTT co-applied with H2O2, oocytes",abolished the effect of H2O2
same,effect on receptor activity,P2X4R; DTT alone,did not modify the receptor activity
same,effect of co-application with H2O2,P2X4R; DTT co-applied with H2O2,the inhibition was completely obliterated
C=C(C)[C@H]1Cc2c(ccc3c2O[C@@H]2COc4cc(OC)c(OC)cc4[C@@H]2C3=O)O1 [rotenone],fold-increase of the ATP-evoked currents,"P2X2aR [1]; 600 nM rotenone, 10 min prior to ATP, oocytes",1.75 ± 0.38 fold
same,potentiation by rotenone,P2X2bR [2]; 600 nM,not observed
same,fold-increase of the ATP-evoked currents,P2X2aR [3]; 600 nM rotenone,1.52 ± 0.08 fold
same,potentiation by rotenone,P2X2bR [4]; 600 nM,not observed
same,effect on P2X2R-mediated currents,P2X2R,transient increase followed by sustained inhibition
"Nc1ncnc2c1ncn2[C@@H]1O[C@H](COP(=O)([O-])OP(=O)([O-])OP(=O)([O-])O)[C@@H](O)[C@H]1O.[Na+].[Na+].[Na+] [ATP, ATP tri sodium salt]",10–90% deactivation time,"P2X2aR [1]; ATP alone (before mercury), oocytes",4.4 ± 0.2 s
same,EC50,"P2X2aR [1]; ATP alone, Xenopus laevis oocytes, Hill equation",33.3 ± 2.5 µM
same,nH,"P2X2aR [1]; ATP, oocytes, Hill equation",1.4 ± 0.1
same,Imax,"P2X2aR [1]; saturating concentration of ATP, oocytes",12.1 ± 2.9 μA
same,EC50,"P2X2bR [2]; ATP alone, Hill equation",59.2 ± 9.1 µM
same,nH,P2X2bR [2]; ATP,1.4 ± 0.3
same,Imax,P2X2bR [2]; [7],15.6 ± 1.9 μA
same,EC50,"P2X2a-C430A; ATP alone, Hill equation",293 ± 70 µM
same,nH,P2X2a-C430A; ATP,1.2 ± 0.3
same,reduction of ATP potency compared to the wild type,P2X2a-C430A,10 fold
same,Imax,P2X2a-C430A; [7],1.2 ± 0.5 μA
same,EC50,"P2X2a-C430S [5]; ATP alone, Hill equation",45 ± 6.3 µM
same,nH,P2X2a-C430S [5]; ATP,1.4 ± 0.3
same,Imax,P2X2a-C430S [5]; [7],11.8 ± 0.8 μA
same,10–90% deactivation time,P2X4/2a chimera; ATP alone (before mercury),12.6 ± 1.1 s
same,EC50,"P2X4/2a chimera; ATP alone, Hill equation",4.8 ± 0.6 µM
same,nH,P2X4/2a chimera; ATP,0.9 ± 0.2
same,Imax,P2X4/2a chimera; [7],6.7 ± 1.5 μA
same,EC50,"P2X4/2b chimera; ATP alone, Hill equation",4.6 ± 2.4 µM
same,nH,P2X4/2b chimera; ATP,1.2 ± 0.1
same,Imax,P2X4/2b chimera; [7],14.0 ± 1.5 μA
same,EC50,"P2X4R; ATP alone, Hill equation",11 ± 2.6 µM
same,Imax,P2X4R; [7],4.7 ± 0.6 μA
same,nH,P2X2aR [3]; ATP,1.2 ± 0.2
same,EC50,"P2X2aR [3]; ATP alone, Hill equation",10.2 ± 1.3 µM
same,Imax,P2X2aR [3]; [7],4.6 ± 0.3 nA
same,EC50,"P2X2bR [4]; ATP alone, Hill equation",7.6 ± 1.3 µM
same,nH,P2X2bR [4]; ATP,1.1 ± 0.3
same,Imax,P2X2bR [4]; [7],4.2 ± 0.9 nA
same,EC50,"P2X2a-C430S [6]; ATP alone, Hill equation",18.1 ± 3.3 µM
same,nH,P2X2a-C430S [6]; ATP,1.5 ± 0.6
same,Imax,P2X2a-C430S [6]; [7],5.4 ± 0.9 nA
CO/C(=C/C(N)=O)[C@H](C)[C@H](/C=C/c1csc(-c2csc([C@@H](C)/C=C/C=C/C(C)C)n2)n1)OC [myxothiazol],effect of higher concentrations on receptor activity (biphasic),"P2X2aR [1]; higher concentrations, data not shown, expression system not given",inhibited the receptor activity
same,maximal potentiation of ATP-evoked currents,"P2X2aR [1]; myxothiazol applied 10 min prior to ATP, oocytes",1.95 ± 0.18 fold
same,sensitivity to myxothiazol,P2X2bR [2],insensitive
same,increase of ATP-evoked currents,"P2X2aR [3]; 100 nM myxothiazol, 3 μM ATP",1.95 ± 0.14 fold
same,sensitivity to myxothiazol,P2X2bR [4],insensitive
same,effect on P2X2R-mediated currents,P2X2R,transient increase followed by sustained inhibition
[Cl][Cu][Cl] [copper],increase of 10–90% deactivation time,P2X2aR [1],2 fold
same,effect on the ATP-gated current,P2X2aR [1]; oocytes,potentiated
same,washout period sufficient to restore normal response,P2X2aR [1]; oocytes,≤ 10 min
same,potentiation compared to wild type P2X2aR,P2X2a-C430A,not significantly altered
same,potentiation compared to wild type P2X2aR,P2X2a-C430S [5],not changed
same,inhibition of ATP-evoked currents,"P2X4/2a chimera; 10 μM copper, 1 μM ATP",50%
same,effect on deactivation constant,P2X4/2a chimera,did not modify significantly
same,decrease of maximal ATP response,"P2X4/2a chimera; copper, not shown",40%
same,inhibition of ATP-evoked currents,"P2X4/2b chimera; 10 μM copper, 1 μM ATP",55 ± 12%
same,effect on ATP-induced currents,P2X4R,inhibited
same,increase of ATP-evoked currents,"P2X2aR [3]; 10 μM metal, ATP ~EC15",4.5 ± 0.5 fold
same,increase of ATP-gated currents,"P2X2bR [4]; 10 μM metal, ATP ~EC15",5.7 ± 1.5 fold
same,increase of ATP-gated currents,"P2X2a-C430S [6]; 10 μM metal, ATP ~EC15",4.2 ± 0.9 fold
[Cl-].[Cl-].[Zn+2] [zinc],effect on the ATP-gated current,P2X2aR [1]; oocytes,potentiated
same,washout period sufficient to restore normal response,P2X2aR [1]; oocytes,≤ 10 min
same,potentiation compared to wild type P2X2aR,P2X2a-C430A,not significantly altered
same,potentiation compared to wild type P2X2aR,P2X2a-C430S [5],not changed
same,potentiation of 1 μM ATP-induced current,"P2X4/2a chimera; 10 μM metal, 1 μM ATP",2.6 ± 0.3 fold
same,effect on deactivation constant,P2X4/2a chimera,did not modify significantly
same,potentiation of receptor activity,"P2X4/2b chimera; 10 μM zinc, 1 μM ATP",2.6 ± 0.3 fold
same,effect on ATP-induced currents,P2X4R,potentiated
